Measured values reported in patent US5707821A, “Identification of phospholipase A2 inhibitors in Aβ peptide-mediated neurodegenerative disease” (priority 1995, dated 1998).
pIC50: −log10 of the molar value.

What was measured:
[1] = Compound toxicity to human cortical neurons in absence of Aβ1-40 (alamarBlue, 3 days); format: cell-based; settings: human, cortical neurons
Protocol: (§1) Cultures of human cortical or hippocampal neurons were prepared using a modification of the procedure described in P. Seubert et al. (1992), Nature 359:325-327. Cortical or hippocampal tissue was dissociated by incubation in a trypsin/EDTA solution (0.05% trypsin +0.53 mM EDTA in HBSS; Gibco) for 20 minutes at 37° C. The trypsin was then inactivated by resuspending the cells in serum-containing medium (MEM/FBS): Modified Eagle's Medium (MEM) containing 1% glucose, 1 mM sodium pyruvate, 1 mM glutamine, and supplemented with 10% fetal bovine serum (Gibco). Cells were then pelleted by centrifugation and resuspended in a chemically-defined medium (MEM/B27): MEM containing B27 supplement (Gibco) in place of FBS. Polyethyleneimine (PEI)-coated 6.4-mm (96-well) dishes were rinsed once with MEM/FBS, and then seeded at 0.75-1.25×10^5 cells per well in 0.1 ml MEM/B27. Cultures were maintained in a H2 O-saturated incubator with an atmosphere of 95% air/5% CO2 at 37° C. The culture medium was exchanged twice weekly.
(§2) The alamarBlue™ assay incorporated a proprietary fluorometric/colorimetric metabolic indicator (Alamar Biosciences, Inc.). Viable cells convert alamarBlue™ from an oxidized (non-fluorescent, blue) form to a reduced (fluorescent, red) form. Assays were performed by replacing the culture media with a 10% alamarBlue™ solution in DMEM (rat cortical cultures) or MEM (human cortical cultures). Reduction of alamarBlue™ was determined spectrofluorometrically using a Millipore Cytofluor 2350 Scanner (excitation, […]; emission, 590 nm) and CytoCalc™ software (Millipore Corporation).
(§3) Human cortical neurons were treated with 50 μM Aβ1-40 and various inhibitors of PLA2 or PLC. Compounds were added at the time of Aβ1-40 treatment at concentrations 390 nM to 100 μM. Compounds were also added to neuronal cultures in the absence of Aβ1-40. Neuronal survival was determined after 3 days of treatment by alamarBlue®. IC50 is the dose of compound that inhibited Aβ-mediated neurotoxicity by 50%. […] Data represents the mean ± SD (n=3). ND, not detected at the concentration range used.

human cortical neurons [2] = assay: as above; format: cell-based
Protocol: as §1, §2, §3

PLA2 = settings: literature; cited from earlier work
human cortical neurons [3] = assay: Aβ neurotoxicity / survival of human cortical neurons (alamarBlue), compound added at time of Aβ1-40; format: cell-based; settings: for Max Inh: 50 μM Aβ1-40, compound 390 nM to 100 μM added at time of Aβ, 3 days, n=3
Protocol: as §1
(§4) Amyloid-β (Aβ) stock solutions were prepared as 1 mM stocks in sterile ddH2 O immediately prior to addition to cultures. Rat cortical neurons were exposed to Aβ by removing the culture medium and replacing it with DMEM/N2 or DMEM/B27 containing Aβ1-40. Human cortical neurons were exposed to Aβ by removing the culture medium and replacing it with MEM, MEM/N2, or MEM/B27 containing Aβ1-40. Cultures were maintained for 2-4 days before neuronal survival was quantified using alamarBlue™.
as §2
The effect of the two benzenesulfonamide inhibitors of PLA2 in Example 2 were examined to determine the dose-dependence of their effect on neuronal survival in human cortical neuron cultures exposed to 0 μM, 25μM, or 50 μM of Aβ1-40 and varying doses of the benzenesulfonamide.
as §3

[4] = tested on: PLC (phosphatidyl choline-phospholipase C); settings: literature; cited from earlier work
AD patients = settings: selected group of five AD patients; cited from earlier work
[5] = Compound toxicity to human cortical neurons in absence of Aβ1-40, added as in pretreatment protocol; format: cell-based; settings: human, cortical neurons, no Aβ1-40, 3 days, n=3, ND = not detected at the concentration range used, read-out: TD50 (concentration giving 50% loss of neuronal survival)
Protocol: as §1, §2
(§5) Human cortical neurons were treated with 50 μM Aβ1-40 and various inhibitors of PLA2. Compounds were added 2 hours prior to Aβ1-40 treatment at concentrations of 390 nM to 100 μM, and were then re-added at the time of Aβ1-40 treatment. Compounds were also added in an identical manner to neuronal cultures in the absence of Aβ1-40. Neuronal survival was determined after 3 days of treatment by alamarBlue®. IC50 is the dose of compound that inhibited Aβ-mediated neurotoxicity by 50%. […] Data represents the mean ± SD (n=3). ND, not detected at the concentration range used.

human cortical neurons [6] = assay: as above; format: cell-based; settings: no Aβ1-40, 3 days, n=3
Protocol: as §1, §2, §5

human cortical neurons [7] = assay: Aβ neurotoxicity in human cortical neurons (alamarBlue), 2 h pretreatment with inhibitor; format: cell-based; settings: Homo sapiens, Cortical neurone, 72 h, read-out: Max Inh
Protocol: as §1, §4, §2
The effect of pretreating human cortical neuron cultures with the benzenesulfonamide PLA2 inhibitors and arachidonyl trifluoromethyl ketone prior to exposure to a neurotoxic concentration of Aβ1-40 was determined.
as §5

Row | Structure (SMILES) | Max Inh (human cortical neurons [3]) | inhibition of PLC [4] | CC50 at 72 h [5] | TD10 (concentration giving 10% loss of neuronal survival) (human cortical neurons [6]) | Emax (human cortical neurons [7]) | other results
1 | COc1ccc2c(c1)CC[C@@H]1[C@@H]2CC[C@]2(C)[C@@H](NCCCCCCN3C(=O)C=CC3=O)CC[C@@H]12 [U73122, 1-[6-[[(17β)-3-methoxyestra-1,3,5(10)-trien-17-yl]amino]hexyl]-1H-pyrrole-2,5-dione] | 66% | inhibits both PLA2 and PLC |  |  |  | CC50 at 72 h ([1]; no Aβ1-40, 3 days, 390 nM to 100 μM, n=3, ND = not detected at the concentration range used, read-out: TD50 (concentration giving 50% loss of neuronal survival)): 16 µM; TD10 (concentration giving 10% loss of neuronal survival) (human cortical neurons [2]; no Aβ1-40, 3 days, 390 nM to 100 μM, n=3): 11 µM; inhibition of PLA2 (PLA2): inhibits both PLA2 and PLC; pIC50 (human cortical neurons [3]; Homo sapiens, Cortical neurone, 72 h, read-out: IC50 (dose that inhibited Aβ-mediated neurotoxicity by 50%)): 5.05
2 | COc1ccc2c(c1)c(CC(=O)O)c(C)n2C(=O)c1ccc(Cl)cc1 [indomethacin] |  |  |  |  |  | effects on neuropathological progression (AD patients): no effects on neuropathological progression were noted; reducing symptomatic progression in AD patients (AD patients): allegedly useful in reducing symptomatic progression
3 | S=C(S)OC1CC2CC1C1CCCC21 (stereo not shown) [AN20602, potassium 8(9)-tricyclo[5.2.1.0^2,6]decyl xanthate] | 25% | PLC inhibitor |  |  |  | CC50 at 72 h [1]: 35 µM; TD10 (concentration giving 10% loss of neuronal survival) (human cortical neurons [2]; human, 4320 min): 13 µM; enhancing neuronal survival after exposure to Aβ (in words) (human cortical neurons [3]; Example 5, FIG. 5, three days): relatively ineffective in enhancing neuronal survival
4 | O=C(CBr)c1ccc(Br)cc1 [p-Bromophenacyl Bromide] |  |  | 10 µM | 8 µM | 39% | 
5 | CC1=C(CC/C(C)=C/CCC2=CC[C@H](C3=CC(=O)O[C@H]3O)O[C@H]2O)C(C)(C)CCC1 [Manoalide] |  |  | 10 µM | 8 µM | 49% | 
